# Test results as given in US7279548B2, “Identification and isolation of novel polypeptides having WW domains and methods of using same” (Cytogen Corporation, priority 1996, dated 2007).
# No end group written: not given here. *: point of attachment. Biotin = O=C1N[C@H]2[C@H](CS[C@H]2CCCCC(=O)*)N1
# Test system: WW domains of WWP4 expressed as GST fusion proteins
# Test: ELISA based cross affinity mapping, WW domains of WWP4
# Format: binding, human
# Conditions: biotinylated peptide-streptavidin/alkaline phosphatase complex; GST fusion proteins; ELISA
# Protocol: The 16 day mouse embryo cDNA expression library was diluted 1:1000 in SM solution (100 mM NaCl, 8 mM MgSOv4, 50 mM Tris HCl pH 7.5, 0.01% gelatin). To a sterile test tube, 2 μl of diluted mouse embryo library, 100 μl of 10 mM CaCl2, 100 μl of 10 mM MgCl2 and 100 μl of BL21(DE3)pLysE bacterial cells (grown overnight) were added and incubated for 30 minutes at 37° C. The contents of the tube were mixed with 3 ml of 0.6% top agarose, containing […] chloramphenicol, and poured onto a 2xYT plate (90 mm diameter). For a large primary screen, 10–20 plates were prepared with 3×10^4 pfu per plate. After 6 hours incubation at 37° C., a nitrocellulose filter soaked in 10 mM isopropyl-β-D-thiogalactopyranoside (IPTG) was overlaid on each plate and incubated 3–6 hours at 37° C. Before the filters were removed from the plates, they were marked asymmetrically with India ink in a 18 gauge syringe needle. The plates were stored at 4° C. until ready for the secondary screen. The filters were washed with PBS (137 mM NaCl, 2.7 mM KCl, 4.3 mM Na2HPO4, 1.4 mM KH2PO4)-0.05% Triton X-100 three times at room temperature, 15 minutes each wash, and then placed in a plastic bag containing non-specific blocking solution (PBS-2% BSA) for one hour. In the meantime, 1 ml of 1 mM biotinylated peptide in PBS-0.1% Tween 20 was added to 20 ml of 1 mg/ml streptavidin-alkaline phosphatase (SA-AP) in PBS-0.1% Tween 20 and incubated at 4° C. for 30 minutes. […] Excess biotin-binding sites would then be blocked by addition of 500 pmol biotin. […] Ten μl of 0.1 mM biotin would then be added, and the solution incubated for an additional 15 min.
# To determine the ligand preferences of the novel WW omain-containing clones described in Sections 6.1 and 6.1.1, as well as addressing the issue of whether peptides containing PPPPY (SEQ ID NO:3)-like motifs derived from a variety of proteins could also serve as recognition units and bind to these clones, a cross affinity mapping experiment was performed (FIGS. 15A–D). The peptides shown in FIGS. 15A–D were synthesized, biotinylated, complexed with streptavidin-alkaline phosphatase, and tested in an ELISA based assay for their ability to bind to the twelve individual novel WW domains of WWP1, WWP2, WWP3 and WWP4 which were expressed as GST fusion proteins. The ELISA based cross-affinity experiments were performed essentially as described by Sparks et al. (1996, Proc. Natl. Acad. Sci. 93:1540–1544) with the following modifications. Briefly, microtiter wells were coated with 1–5 μg of fusion protein in 100 mM NaHCO3, blocked with SuperBlock TBS (Pierce) and washed four times with PBS, 0.05% Tween 20. Specific peptide-streptavidin/alkaline phosphatase complexes were added as above and unbound complexes washed five times with PBS, 0.05% Tween 20. Following addition of PNP substrate (p-nitrophenyl phosphate, Kirkegard & Perry Labs), peptide binding was quantitated after 30 min. at O.D. 405 nm. Relative binding measurements from three independent determinations were assigned to a scale as follows: O.D. units 0–0.5=(−), 0.5–1.0=(+), 1.0–2.0=(++), 2.0–3.0=(+++), >3.0=(++++). Peptide binding to human Fyn and Lyn SH3 and SH2 domains was assessed by a filter binding assay (see Section 6.1 and Sparks et al., 1996, Proc. Natl. Acad. Sci 93:1540–1544). Peptide sequences used in cross-affinity experiments correspond to segments of the following genes: RasGap (Database accession # P20936), AP-2 (P05549), p53BP-2 (U09582), IL-6Rα (P22272), voltage-gated chloride channel CLCN5 (X91906), IL-2Rγ (D111086), RSV (D10652), HTLV-1 (D13784), β-dystroglycan (L19711), Formin (X53599), amiloride-sensitive epithelial Na^+ channel ENaCα (P37089), ENaCβ (X87159) and ENaCγ (X87160), muscarinic acetylcholine receptor M4 AChR (P08173), and c-Abl (P00522). Src and Crk SH3 binding peptide sequences were derived from a phage display random peptide library screen (Section 6.1 and Sparks et al., 1996, Proc. Natl. Acad. Sci. 93:1540–1544).
row,Substance,binding to WW domains of WWP4
1,Biotin-SGSGYVQPPPPPYPGPM [WBP-2A],specifically bind
2,Biotin-SGSGPGTPPPPYTVGPGY [WBP-1],specifically bind
3,Biotin-SGSGPGTPYPPPPEFY [WBP-2B],none of the WW domains of these proteins specifically bind
